Among the data in patent publication US9271969B2, “Compounds as inhibitors of diacylglycerol O-acyltransferase type 1 enzyme” (KAINOS MEDICINE, INC., priority 2012, dated 2016) are IC50 values, retold here.

The target in one assay is human DGAT1 (Homo sapiens (Human), UniProt O75907). Briefly: biochemical.
A further assay has as its target mouse DGAT1 (Mus musculus (Mouse), UniProt Q9Z2A7). Briefly: Radiometric DGAT1 assay, mouse liver microsomes. Format: biochemical. The following applies: mouse liver microsomes having mouse DGAT1 activity. From the text:
A second source of DGAT1 activity was human or mouse liver microsomes.

pIC50: −log10 of the molar value.

Chain of mouse DGAT1 (Q9Z2A7 whole entry): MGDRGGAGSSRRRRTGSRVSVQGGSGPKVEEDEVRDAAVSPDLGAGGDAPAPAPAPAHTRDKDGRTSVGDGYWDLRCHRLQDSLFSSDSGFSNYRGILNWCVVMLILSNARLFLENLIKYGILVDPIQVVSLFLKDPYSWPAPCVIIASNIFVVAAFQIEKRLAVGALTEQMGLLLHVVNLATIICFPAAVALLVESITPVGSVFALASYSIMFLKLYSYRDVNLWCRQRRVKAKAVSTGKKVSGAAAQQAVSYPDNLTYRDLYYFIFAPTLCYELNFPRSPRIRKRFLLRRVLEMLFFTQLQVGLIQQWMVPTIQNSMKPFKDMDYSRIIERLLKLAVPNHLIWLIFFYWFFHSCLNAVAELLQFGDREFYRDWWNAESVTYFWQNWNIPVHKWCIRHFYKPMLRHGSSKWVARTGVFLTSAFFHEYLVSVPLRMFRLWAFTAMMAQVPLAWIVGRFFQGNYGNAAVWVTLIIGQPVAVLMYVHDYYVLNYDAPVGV
Chain of human DGAT1 (O75907 whole entry): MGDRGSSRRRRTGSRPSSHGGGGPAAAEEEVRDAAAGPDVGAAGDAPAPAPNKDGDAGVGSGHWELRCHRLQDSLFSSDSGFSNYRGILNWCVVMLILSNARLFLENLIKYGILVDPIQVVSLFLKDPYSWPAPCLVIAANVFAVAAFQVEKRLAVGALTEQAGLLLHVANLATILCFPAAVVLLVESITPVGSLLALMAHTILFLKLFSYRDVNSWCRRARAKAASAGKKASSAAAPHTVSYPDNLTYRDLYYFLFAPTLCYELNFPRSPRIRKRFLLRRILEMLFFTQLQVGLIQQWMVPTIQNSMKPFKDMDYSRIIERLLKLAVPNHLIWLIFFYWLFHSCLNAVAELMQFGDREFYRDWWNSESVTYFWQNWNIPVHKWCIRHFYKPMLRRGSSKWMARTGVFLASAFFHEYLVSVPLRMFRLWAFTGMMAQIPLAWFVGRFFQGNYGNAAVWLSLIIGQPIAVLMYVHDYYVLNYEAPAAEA

As to `O=C(O)C[C@H]1CC[C@H](c2ccc(-c3ccc4nc(C(=O)NCc5cc(OC(F)(F)F)ccc5F)cn4c3)cc2)CC1` [Compound 9, 2-((1r,4r)-4-(4-(2-((2-Fluoro-5-(trifluoromethoxy)benzyl)carbamoyl)imidazo[1,2-a]pyridin-6-yl)phenyl)cyclohexyl)acetic acid], the pIC50 on human DGAT1 and against mouse DGAT1 was above 7.30 in each case.
In the case of `O=C(O)C[C@H]1CC[C@H](c2ccc(-c3ccc4nc(C(=O)NCc5ccc(F)c(OC(F)(F)F)c5)cn4c3)cc2)CC1` [Compound 10, 2-((1r,4r)-4-(4-(2-((4-Fluoro-3-(trifluoromethoxy)benzyl)carbamoyl)imidazo[1,2-a]pyridin-6-yl)phenyl)cyclohexyl)acetic acid], the negative logarithm of the IC50 (pIC50) against human DGAT1 and against mouse DGAT1 was above 7.12 in each case.
`O=C(O)C[C@H]1CC[C@H](c2ccc(-c3ccc4nc(C(=O)NCc5ccc(C(F)(F)F)c(F)c5)cn4c3)cc2)CC1` [Compound 11, 2-((1r,4r)-4-(4-(2-((3-Fluoro-4-(trifluoromethyl)benzyl)carbamoyl)imidazo[1,2-a]pyridin-6-yl)phenyl)cyclohexyl)acetic acid]: the negative logarithm of the IC50 (pIC50) on human DGAT1 is above 7.30; on mouse DGAT1, above 7.12.
Taken in the same sequence, the figures for `COc1ccc(CNC(=O)c2cn3cc(-c4ccc([C@H]5CC[C@H](CC(=O)O)CC5)cc4)ccc3n2)cc1` [Compound 12, 2-((1r,4r)-4-(4-(2-((4-Methoxybenzyl)carbamoyl)imidazo[1,2-a]pyridin-6-yl)-phenyl)cyclohexyl)acetic acid] were above 7.60 and above 6.82.
The like results for `COc1ccc(OC(F)(F)F)cc1CNC(=O)c1cn2cc(-c3ccc([C@H]4CC[C@H](CC(=O)O)CC4)cc3)ccc2n1` [Compound 18, 2-((1r,4r)-4-(4-(2-((2-Methoxy-5-(trifluoromethoxy)benzyl)carbamoyl)imidazo[1,2-a]-pyridin-6-yl)phenyl)cyclohexyl)acetic acid] were, in that order, above 8.00 and above 9.00.
Consider `CC(C)c1ccc(CNC(=O)c2cn3cc(-c4ccc([C@H]5CC[C@H](CC(=O)O)CC5)cc4)ccc3n2)cc1` [Compound 19], for which the results for the pIC50 against human DGAT1 and at mouse DGAT1 were above 8.00 and above 9.00, respectively.
Taken in the same sequence, the figures for `Cc1ccccc1NC(=O)c1cn2cc(-c3ccc([C@H]4CC[C@H](CC(=O)O)CC4)cc3)ccc2n1` [Compound 32, 2-((1r,4r)-4-(4-(2-(o-Tolylcarbamoyl)imidazo[1,2-a]pyridin-6-yl)phenyl)cyclohexyl)acetic acid] were above 9.00 and above 9.00.
The like results for `O=C(O)C[C@H]1CC[C@H](c2ccc(-c3ccc4nc(C(=O)Nc5ccc(F)cc5C(F)(F)F)cn4c3)cc2)CC1` [Compound 33, 2-((1r,4r)-4-(4-(2-((4-Fluoro-2-(trifluoromethyl)phenyl)carbamoyl)imidazo[1,2-a]pyridin-6-yl)phenyl)cyclohexyl)acetic acid] were, in that order, above 6.60 and above 6.12.
Consider `O=C(O)C[C@H]1CC[C@H](c2ccc(-c3ccc4nc(C(=O)Nc5ccccc5C(F)(F)F)cn4c3)cc2)CC1` [Compound 34, 2-((1r,4r)-4-(4-(2-((2-(Trifluoromethyl)phenyl)carbamoyl)imidazo[1,2-a]pyridin-6-yl)phenyl)cyclohexyl)acetic acid], for which the results for the pIC50 against human DGAT1 and on mouse DGAT1 were above 6.82 and above 6.35, respectively.
With `O=C(O)C[C@H]1CC[C@H](c2ccc(-c3ccc4nc(C(=O)Nc5ccccc5F)cn4c3)cc2)CC1` [Compound 35, 2-((1r,4r)-4-(4-(2-((2-Fluorophenyl)carbamoyl)imidazo[1,2-a]pyridin-6-yl)phenyl)cyclohexyl)acetic acid], the negative logarithm of the IC50 (pIC50) against human DGAT1 is above 6.70; against mouse DGAT1 it was above 6.26.
Taken in the same sequence, the figures for `COc1ccccc1NC(=O)c1cn2cc(-c3ccc([C@H]4CC[C@H](CC(=O)O)CC4)cc3)ccc2n1` [Compound 36, 2-((1r,4r)-4-(4-(2-((2-Methoxyphenyl)carbamoyl)imidazo[1,2-a]pyridin-6-yl)phenyl)cyclohexyl)acetic acid] were above 7.00 and above 7.12.
Taken in the same sequence, the figures for `Cc1ccccc1CNC(=O)c1cn2cc(-c3ccc([C@H]4CC[C@H](CC(=O)O)CC4)cc3)ccc2n1` [Compound 37, 2-((1r,4r)-4-(4-(2-((2-Methylbenzyl)carbamoyl)imidazo[1,2-a]pyridin-6-yl)phenyl)cyclohexyl)acetic acid] were above 8.00 and above 7.30.
Consider `Cc1cccc(C)c1NC(=O)c1cn2cc(-c3ccc([C@H]4CC[C@H](CC(=O)O)CC4)cc3)ccc2n1` [Compound 38, 2-((1r,4r)-4-(4-(2-((2,6-Dimethylphenyl)carbamoyl)imidazo[1,2-a]pyridin-6-yl)phenyl)cyclohexyl)acetic acid], for which the pIC50 at human DGAT1 was above 6.70; against mouse DGAT1, above 9.00.
The like results for `O=C(O)C[C@H]1CC[C@H](c2ccc(-c3ccc4nc(C(=O)Nc5cc(F)ccc5F)cn4c3)cc2)CC1` [Compound 39, 2-((1r,4r)-4-(4-(2-((2,5-Difluorophenyl)carbamoyl)imidazo[1,2-a]pyridin-6-yl)phenyl)cyclohexyl)acetic acid] were, in that order, above 8.00 and above 9.00.
Taken in the same sequence, the figures for `O=C(O)C[C@H]1CC[C@H](c2ccc(-c3ccc4nc(C(=O)Nc5cc(F)c(F)c(F)c5)cn4c3)cc2)CC1` [Compound 40, 2-((1r,4r)-4-(4-(2-((3,4,5-Trifluorophenyl)carbamoyl)imidazo[1,2-a]pyridin-6-yl)phenyl)cyclohexyl)acetic acid] were above 9.00 and above 7.30.
Taken in the same sequence, the figures for `COc1ccc(CNC(=O)c2cn3cc(-c4ccc([C@H]5CC[C@H](CC(=O)O)CC5)cc4)sc3n2)cc1` [Compound 57, 2-((1r,4r)-4-(4-(6-((4-Methoxybenzyl)carbamoyl)imidazo[2,1-b]thiazol-2-yl)phenyl)cyclo-hexyl)acetic acid] were above 8.00 and above 6.82.
As to `O=C(O)C[C@H]1CC[C@H](c2ccc(-c3cn4cc(C(=O)NCc5ccc6c(c5)OCO6)nc4s3)cc2)CC1` [Compound 58, 2-((1r,4r)-4-(4-(6-((Benzo[d][1,3]dioxol-5-ylmethyl)carbamoyl)imidazo[2,1-b]thiazol-2-yl)-phenyl)cyclohexyl)acetic acid], the pIC50 against human DGAT1 is above 7.00; on mouse DGAT1, above 6.49.
Taken in the same sequence, the figures for `O=C(O)C[C@H]1CC[C@H](c2ccc(-c3cn4cc(C(=O)NCc5ccc(F)c(OC(F)(F)F)c5)nc4s3)cc2)CC1` [Compound 59, 2-((1r,4r)-4-(4-(6-((4-Fluoro-3-(trifluoromethoxy)benzyl)carbamoyl)imidazo[2,1-b]thiazol-2-yl)phenyl)cyclohexyl)acetic acid] were above 7.60 and above 7.60.
